Each structure is given as a SMILES string. Where “and” joins values, the source holds several entries; their conditions need not be identical. Identical values can stand only once. Like-named read-outs stand apart in the source and are kept apart here.

The test system of data set [1] is Mycobacterium avium subsp. paratuberculosis CIT03. In words: In vitro antimycobacterial evaluation (MIC/IC90, alamarBlue). The class given is cell-based. The conditions noted are these: for MIC: Mycobacterium avium. How it is done: The MIC/IC90 value is routinely and widely used in bacterial assays and is a standard detection limit according to the Clinical and Laboratory Standards Institute.
A well-characterized clinical isolate of Mycobacterium avium subsp. paratuberculosis (CIT03) was grown in Middlebrook broth (MB), supplemented with Oleic-Albumin-Dextrose-Catalase supplement (OADC, Becton, Dickinson and Comp., Franklin Lakes, NJ, USA) and mycobactin J (2 µg/mL). Identification of this isolate was performed using biochemical and molecular protocols. At log phase growth, a culture sample (10 mL) was centrifuged at 15,000 rpm/20 min using a bench top centrifuge (Model CR 4-12, Jouan Inc., Winchester, VA, USA). Following removal of the supernatant, the pellet was washed in fresh Middlebrook 7H9GC broth and re-suspended in fresh supplemented MB (10 mL). The turbidity was adjusted to match McFarland standard No. 1 (3 × 10^8 cfu) with MB broth. A further 1:20 dilution of the culture was then performed in MB broth. The antimicrobial susceptibility of the mycobacterial species was investigated in a 96-well plate format. In these experiments, sterile deionized water (300 µL) was added to all outer-perimeter wells of the plates to minimize evaporation of the medium in the test wells during incubation. Each evaluated compound (100 µL) was incubated with the mycobacterial species (100 µL). Dilutions of each compound were prepared in duplicate. For all synthesized compounds, final concentrations ranged from 1,000 µg/mL to 8 µg/mL. All compounds were prepared in DMSO and subsequent dilutions were made in supplemented MB. The plates were sealed with parafilm and incubated at 37 °C for 11 days.
Following incubation, a 10% addition of alamarBlue (AbD Serotec, Kidlington, UK) was mixed into each well and readings at 570 nm and 600 nm were taken, initially for background subtraction and subsequently after 24 h re-incubation. […] For non-interfering compounds, a blue colour in the well was interpreted as an absence of growth and a pink colour was scored as growth. Furthermore percent reduction of alamarBlue was calculated to generate quantitative data on cell viability during exposure to antimycobacterial compounds over a period of 5 days. The formula used to determine percent reduction of alamarBlue has been standardized for colorimetric analysis by Abd Serotec.
The MIC value is routinely and widely used in bacterial assays and is a standard detection limit according to the Clinical and Laboratory Standards Institute.

A short description of data set [2]: Lipophilicity determination by RP-HPLC (capacity factor, log k). The class given is physicochemical. The settings on record: end-capped C18, isocratic MeOH 60%/H2O 40%. The procedure: Lipophilicity is a property that has a major effect on bioavailability, biotransformation as well as pharmacological activity, because drugs cross biological membranes through passive transport, which strongly depends on their lipophilicity. Lipophilicity of the studied compounds was determined by RP‑HPLC as capacity factor logarithm (log k). The procedure was performed under isocratic conditions with methanol as an organic modifier in the mobile phase using an end-capped non-polar C18 stationary RP column. The results of ring-substituted naphthalene-1-carboxanilides 1–8c are shown in Table 1 and illustrated in Figure 1. […] Lipophilicity was also calculated as log P using ACD/Percepta ver. 2012 (Advanced Chemistry Development, Inc., Toronto, ON, Canada).
A HPLC system Agilent 1200 equipped with DAD detector (Agilent, USA) was used. A chromatographic column Symmetry® C18 5 μm, 4.6 × 250 mm, Part No. WAT054275 (Waters Corp., Milford, MA, USA) was used. The HPLC separation process was monitored and evaluated by EZChrom Elite software ver. 3.3.2 (Agilent, USA). Isocratic elution by a mixture of MeOH p.a. (60%) and H2O-HPLC Mili-Q grade (40%) as a mobile phase was used. The total flow of the column was 1.0 mL/min, injection 20 μL, column temperature 40 °C, and sample temperature 10 °C. The detection wavelength 210 nm was chosen. The KI methanolic solution was used for the dead time (tD) determination. Retention times (tR) were measured in minutes. The capacity factors k were calculated according to formula k = (tR − tD)/tD, where tR is the retention time of the solute, whereas tD denotes the dead time obtained using an unretained analyte. Log k, calculated from the capacity factor k, is used as the lipophilicity index converted to log P scale.

Data set [3] in a line: Solubility in PET tested medium. The settings on record: PET assay medium, phosphate buffer pH 7.2, DMSO up to 4%. The data set is classed as physicochemical. How it is done: (§1) Chloroplasts were prepared from spinach (Spinacia oleracea L.) according to Masarovicova and Kralova. The inhibition of photosynthetic electron transport (PET) in isolated spinach chloroplasts was determined spectrophotometrically (Genesys 6, Thermo Scientific, USA), using an artificial electron acceptor 2,6-dichlorophenol-indophenol (DCIPP) according to Kralova et al., and the rate of photosynthetic electron transport was monitored as a photoreduction of DCPIP. The measurements were carried out in phosphate buffer (0.02 mol/L, pH 7.2) containing sucrose (0.4 mol/L), MgCl2 (0.005 mol/L) and NaCl (0.015 mol/L). The chlorophyll content was 30 mg/L in these experiments and the samples were irradiated (~100 W/m^2 with 10 cm distance) with a halogen lamp (250 W) using a 4 cm water filter to prevent warming of the samples (suspension temperature 22 °C). The studied compounds were dissolved in DMSO due to their limited water solubility. […] The inhibitory efficiency of the studied compounds was expressed by IC50 values, i.e., by molar concentration of the compounds causing 50% decrease in the oxygen evolution rate relative to the untreated control.

Data set [4] concerns photosynthetic electron transport (PET) in isolated spinach chloroplasts. Description: Inhibition of photosynthetic electron transport (PET) in isolated spinach chloroplasts. The settings on record: DCPIP photoreduction. The data set is classed as biochemical, Spinacia oleracea L. The procedure:
The PET-inhibiting activity was expressed by IC50 value, i.e., compound concentration in mol/L causing 50% inhibition of PET.
as §1

The mark [5] stands for this setting: 264 h, clinical isolate CIT03, 11 days at 37 °C, alamarBlue, MIC = 90% or greater reduction of growth, read-out: MAP MIC/IC90.

Regarding `CO[C@H]1/C=C/O[C@@]2(C)Oc3c(C)c(O)c4c(O)c(c(/C=N/N5CCN(C)CC5)c(O)c4c3C2=O)NC(=O)/C(C)=C\C=C\[C@H](C)[C@H](O)[C@@H](C)[C@@H](O)[C@@H](C)[C@H](OC(C)=O)[C@@H]1C` [RIF, rifampicin, reference compound], the MIC stood at 109 µM in data set [1] (264 h, read-out: MAP MIC/IC90) and 90 µg/mL in data set [1] (clinical isolate CIT03, read-out: MIC). For the same compound, the “MAP MIC/IC90” value in data set [1] (clinical isolate CIT03, 11 days at 37 °C, alamarBlue, MIC = 90% or greater reduction of growth) came out at 109 µM.
Turning to `O=C(Nc1ccccc1Cl)c1cccc2ccccc12` [Compound 5a, N-(2-Chlorophenyl)naphthalene-1-carboxamide], in data set [2], the log k is 0.8322. In addition, in data set [3], the “solubility in tested medium (PET experiments)” value (from here on “solubility in tested medium”) is “precipitation”.
`COc1ccc(NC(=O)c2cccc3ccccc23)cc1` [Compound 2c, N-(4-Methoxyphenyl)naphthalene-1-carboxamide] gave a log k in data set [2] of 0.4953.
Compound `O=C(Nc1ccc(Br)cc1)c1cccc2ccccc12` [Compound 6c, N-(4-Bromophenyl)naphthalene-1-carboxamide] yielded a log k in data set [2] of 0.9985. The “solubility in tested medium” value in data set [3] is given as “limited solubility”. Also, the MIC in data set [1] (setting [5]) is 184 µM. The IC50 in data set [4] is 365 µM.
As to `O=C(Nc1ccccc1[N+](=O)[O-])c1cccc2ccccc12` [Compound 8a, N-(2-Nitrophenyl)naphthalene-1-carboxamide], in data set [2], the log k worked out at 0.9090. Further, in data set [3], the “solubility in tested medium” value is reported as “limited solubility”. The same compound yielded a concentration for half-maximal inhibition (IC50) in data set [4] of 476 µM.
Consider `CN(C)C(=O)Nc1ccc(Cl)c(Cl)c1` [DCMU, 3-(3,4-dichlorophenyl)-1,1-dimethylurea, reference compound], for which the IC50 in data set [4] was ~1.9 µM and 1.9 µM.
For `O=C(Nc1cccc(Br)c1)c1cccc2ccccc12` [Compound 6b, N-(3-Bromophenyl)naphthalene-1-carboxamide], in data set [2], the log k stood at 1.0047. Further, the “solubility in tested medium” value in data set [3] is given as “limited solubility”. Besides, in data set [4], the midpoint of inhibition, the IC50, lay at 278 µM.
In turn, `O=C(Nc1cccc(C(F)(F)F)c1)c1cccc2ccccc12` [Compound 7b, N-[3-(Trifluoromethyl)phenyl]naphthalene-1-carboxamide] yielded a log k in data set [2] of 1.0862. Further, in data set [4], the concentration for half-maximal inhibition (IC50) stood at 114 µM.
In turn, `O=C(Nc1ccccc1)c1cccc2ccccc12` [Compound 1, N-Phenylnaphthalene-1-carboxamide] registered a log k in data set [2] of 0.5620.
Compound `O=C(Nc1ccccc1C(F)(F)F)c1cccc2ccccc12` [Compound 7a, N-[2-(Trifluoromethyl)phenyl]naphthalene-1-carboxamide] came in with a log k in data set [2] of 0.7595. In addition, the “solubility in tested medium” value in data set [3] is reported as “precipitation”.
Consider `O=C(Nc1ccc(C(F)(F)F)cc1)c1cccc2ccccc12` [Compound 7c, N-[4-(Trifluoromethyl)phenyl]naphthalene-1-carboxamide], for which, in data set [2], the log k amounted to 1.1480. In data set [1] (setting [5]), the MIC is 793 µM. In addition, in data set [4], 59 µM corresponded to half-maximal inhibition (IC50).
`O=C(Nc1cccc([N+](=O)[O-])c1)c1cccc2ccccc12` [Compound 8b, N-(3-Nitrophenyl)naphthalene-1-carboxamide] gave a log k in data set [2] of 0.8155. In addition, the “solubility in tested medium” value in data set [3] is listed as “limited solubility”. The compound further showed a 50% inhibitory concentration (IC50) in data set [4] of 492 µM.
Turning to `NNC(=O)c1ccncc1` [INH, isoniazid, reference compound], the MIC in data set [1] (setting [5]) was determined as 1820 µM.
`O=C(Nc1ccccc1F)c1cccc2ccccc12` [Compound 4a, N-(2-Fluorophenyl)naphthalene-1-carboxamide] showed a log k in data set [2] of 0.5592. The “solubility in tested medium” value in data set [3] is “precipitation”.
`O=C(Nc1ccc([N+](=O)[O-])cc1)c1cccc2ccccc12` [Compound 8c, N-(4-Nitrophenyl)naphthalene-1-carboxamide] showed a log k in data set [2] of 0.7328. In data set [4], half-maximal inhibition (IC50) was put at 129 µM.
`O=C(Nc1ccc(Cl)cc1)c1cccc2ccccc12` [Compound 5c, N-(4-Chlorophenyl)naphthalene-1-carboxamide] gave a log k in data set [2] of 0.9223. Besides, it took 102 µM to reach half-maximal inhibition in data set [4] (IC50).
In the case of `O=C(Nc1ccc(F)cc1)c1cccc2ccccc12` [Compound 4c, N-(4-Fluorophenyl)naphthalene-1-carboxamide], the log k in data set [2] is recorded as 0.6315. Moreover, the “solubility in tested medium” value in data set [3] is “precipitation”.
For `O=C(Nc1ccccc1Br)c1cccc2ccccc12` [Compound 6a, N-(2-Bromophenyl)naphthalene-1-carboxamide] the same measures were 0.8892 and “precipitation”.
In turn, `Cc1ccccc1NC(=O)c1cccc2ccccc12` [Compound 3a, N-(2-Methylphenyl)naphthalene-1-carboxamide] displayed a log k in data set [2] of 0.5309.
Take `O=C(Nc1cccc(Cl)c1)c1cccc2ccccc12` [Compound 5b, N-(3-Chlorophenyl)naphthalene-1-carboxamide]: in data set [2], the log k worked out at 0.9357. For the same compound, the half-inhibitory concentration (IC50) in data set [4] was determined as 107 µM.
